Assay results taken from US4510149A, “N-Imidazolyl derivatives containing naphthalene or indene nucleus” (Farmitalia Carlo Erba S.p.A., priority 1982, dated 1985).
“Also recorded” adds a separate entry of the source.

Key:
[1] = orientative acute toxicity, single oral administration, mice; details: in vivo, mouse, same procedure
Description: The toxicity of the compounds of the invention is negligible, therefore they can be safely used in therapy. Nine hours food deprived mice and rats were treated orally with single administration of increasing doses, then housed and normally fed. The orientative acute toxicity (LD50) was assessed on the seventh day after the treatment and resulted higher than 3000 mg/kg.

[2] = system: male rats fed hypercholesterolaemic diet; experiment: Experiment No. 1: serum lipids in rats fed hypercholesterolaemic diet; type: in vivo, rat (Icem: CER (SPF Caw)); details: 4 days
Description: (§1) The introduction of this new substituent in the new bicyclic compounds has therefore unexpectedly strenghtened these activities. The activity of this particular group of compounds of this invention and of the compounds of the above mentioned U.S. Patent and U.K. published Patent Application was evaluated on groups of Icem: CER (SPF Caw) male rats either fed for six days with hypercholesterolaemic diet according to C. E. Day [Schurr P. E., Schultz H. R., Day C. E. (Eds) Atherosclerosis and drug discovery--Plenum Pub. Corp., 217 (1976)] (Experiment No. 1) or fed standard diet [Altromin] (Experiment No. 2). "Altromin" is a trade mark.
(§2) The compounds were suspended in "Methocel" (methyl cellulose, a 0.5% suspension in water) and administered by stomach tube for 4 days.
(§3) Groups of animals were treated with the suspending agent only (control groups).
(§4) The total serum cholesterol was determined with the method of Trinder P. J. [J.Clin.Pathol., 22, 246 (1969)].
The total serum HDL cholesterol was determined according to Demacker P. N. M. [Clin. Chem., 23, 1238, (1977)].
Statistical analysis in experiment No. 1 was performed by the Student's t test for independent samples or by the Cochran's test when the variances were not homogeneous at the F ratio test [Bliss C. I.--Statistics in Biology, Vol. 1, page 213--Mc Graw Hill Book Company, New York, 1967; Cochran W. G., Cox G. M.--Experimental designs--J. Wiley & Sons Inc., New York, II Ed. (1968) page 100].

[3] = system: collagen-induced platelet aggregation; experiment: in vitro inhibition of collagen-induced platelet aggregation in platelet rich plasma; type: cell-based, guinea pig; details: for inhibition at 12.5 µg/mL: in vitro concentration 12.50 mcg/ml
Description: (§5) The platelet antiaggregatory activity of the compounds of the invention was evaluated in vitro and in vivo, for example, according to the modified methods of Born [Born G. V. R., Nature 194, 927 (1962)] and Silver [Silver M. J., Science 183, 1085 (1974)].
(§6) The compounds of this invention were found in vitro to have inhibitory activity on platelet aggregation induced by collagen or ADP (adenosine-5'-disphosphate) in platelet rich plasma of guinea pig [Dunkin Hantley Iva: PDH (SPF) Ivanovas GmBH, Germany].

[4] = system: male rats fed standard diet; experiment: Experiment No. 2: serum lipids in rats fed standard Altromin diet; type: in vivo, rat (Icem: CER (SPF Caw)); details: 4 days
Description: as §1, §2, §3, §4
The serum triglycerides were determined with the method of Mendex J. [J. Clin. Chem., 21, 768, (1975)].
W.--J. Amer. Stat. Ass., 50, 1096 (1955)].

[5] = system: arachidonic acid (1.4 mg/kg) induced mortality in rabbits; experiment: arachidonic acid induced mortality in rabbits; type: in vivo, rabbit (New Zealand White)
Description: as §5
The compound FCE 22178 was also suspended in Methocel® and administered orally by gavage to rabbits (New Zealand White) at 2 mg/kg one hour before the injection of 1.4 mg/kg of arachidonic acid.

TxA2 synthetase = experiment: serum TxB2 concentration in rats after single oral dose (activity on TxA2 synthetase in vivo); design: species or system rat; details: 2 hours
Description: (§7) The activity on TxA2 and PGI2 synthetase has been evaluated in vivo. For example, rats were treated with a single oral dose of compound and killed 2 hours later. TxB2 and 6-keto-PGF1α concentrations, the stable metabolites of TxA2 and PGI2 respectively, were determined on serum and plasma respectively.

PGI2 synthetase = experiment: plasma 6-keto-PGF1α concentration in rats after single oral dose (activity on PGI2 synthetase in vivo); design: species or system rat; details: 2 hours
Description: as §7

male SHR rats = experiment: development of hypertension in SHR rats, mean systemic pressure after seven weeks oral treatment; type: in vivo, rat (SHR)
Description: For example, one of the compound of this invention, i.e. compound FCE 22178, was given orally to nine male SHR rats for seven weeks at the dosage of 9 mg/kg.
The mean systemic pressure was monitored on an eight channels Beckman polygraph via a Statham pressure transducer, connected to a PE 60 catheter, inserted, 24 hours before monitored, into the left carotid artery.

[6] = system: ADP-induced platelet aggregation; experiment: in vitro inhibition of ADP-induced platelet aggregation in platelet rich plasma; type: cell-based; details: guinea pig platelet rich plasma
Description: as §5, §6

[7] = system: thromboxane A2 (TXA2) synthetase; details: literature / prior filings; cited from earlier work

COc1ccc2c(c1)CCC(Cn1ccnc1)=C2 [1,2-dihydro-3-(1-imidazolylmethyl)-7-methoxy-naphthalene]
LD50 at 168 h [1]: < 200 mg/kg

C1=C(Cn2ccnc2)CCc2ccccc21 [1,2-dihydro-3-(1-imidazolylmethyl)-naphthalene]
LD50 at 168 h [1]: < 200 mg/kg

O=C1c2cc(Cl)ccc2OCC1n1ccnc1 (stereo not shown) [FCE 20204, 3-(1-imidazolyl)-2,3-dihydro-6-chloro-4H-1-benzopyran-4-one, reference compound]
Serum HDL cholesterol, % variation vs. controls ([2]; 25 mg/kg/os): +49 % variation vs. controls
Total serum cholesterol, % variation vs. controls ([2]; 25 mg/kg/os): +7 % variation vs. controls
inhibition at 12.5 µg/mL ([3]; Cavia porcellus, Platelet): 0%

COc1ccc2c(c1)C(=O)C(n1ccnc1)CC2 (stereo not shown) [FCE 21848, 2-(1-imidazolyl)-3,4-dihydro-7-methoxy-1(2H)-naphthalenone, reference compound]
Serum triglycerides, % variation vs. controls ([4]; 50.00 mg/kg/os): inactive
Total serum cholesterol, % variation vs. controls ([4]; 50.00 mg/kg/os): inactive
inhibition at 12.5 µg/mL ([3]; Cavia porcellus, Platelet): 0%

O=C(O)c1ccc2c(c1)C=C(n1ccnc1)CC2 [FCE 22178, 1,2-dihydro-3-(1-imidazolyl)-6-carboxy-naphthalene]
effect on arachidonic acid induced mortality ([5]; 2 mg/kg orally): greatly decreases
Mortality ([5]; 2 mg/kg/os, one hour before arachidonic acid 1.4 mg/kg, Methocel control 9/9): 3/9
reduction of serum TxB2 concentration (TxA2 synthetase; 100 mg/kg): 90%
reduction of serum TxB2 concentration (TxA2 synthetase; dosed up to 9 mg/kg): up to 70%
change of plasma 6-keto-PGF1α concentration (PGI2 synthetase; 100 mg/kg): doubled
increase of plasma 6-keto-PGF1α concentration (PGI2 synthetase; dosed up to 9 mg/kg): up to 30%
development of hypertension (male SHR rats; 9 mg/kg orally for seven weeks): decreased the development of hypertension
Mean systemic pressure, Treated (male SHR rats; 9 mg/kg orally, 7 weeks, controls 177 ± 5.06): 154.8 ± 14.1 mm Hg ± E.S.

COc1ccc2c(c1)C=C(n1ccnc1)CC2 [FCE 22466, 1,2-dihydro-3-(1-imidazolyl)-6-methoxy-naphthalene]
activity on ADP-induced platelet aggregation [6]: active
inhibition of collagen-induced platelet aggregation ([3]; 25 mcg/ml): totally inhibits collagen-induced platelet aggregation in three out of four samples
inhibition at 12.33 µg/mL ([3]; Cavia porcellus, Platelet, in vitro concentration 12.33 mcg/ml): 50%
activity on collagen-induced platelet aggregation ([3]; in vitro, guinea pig platelet rich plasma): active

CC(C)(Oc1ccc2c(c1)C=C(n1ccnc1)CC2)C(=O)O [FCE 22473, 1,2-dihydro-3-(1-imidazolyl)-6-(2-carboxy-isopropoxy)-naphthalene]
Serum HDL cholesterol, % variation vs. controls ([2]; 27 mg/kg/os): +77 % variation vs. controls
Total serum cholesterol, % variation vs. controls ([2]; 27 mg/kg/os): -73 % variation vs. controls
Serum triglycerides, % variation vs. controls ([4]; 16.67 mg/kg/os): -57 % variation vs. controls
Total serum cholesterol, % variation vs. controls ([4]; 16.67 mg/kg/os): -32 % variation vs. controls

c1c[nH]cn1 [imidazole]
inhibition of TxA2 synthetase [7]: able to inhibit; also recorded: only a very weak TXA2 inhibiting effect
